This note sets out measurements from patent US20230295157A1, “3-(1H-IMIDAZOL-2-YL)-2,3,8,8A-TETRAHYDROINDOLIZIN-5(1H)-ONE DERIVATIVES USEFUL AS FACTOR XIA INHIBITORS” (JANSSEN PHARMACEUTICA NV, priority 2020, published 2023).

One experiment concerns the target Factor XIa (Homo sapiens (Human), UniProt P03951). In words: Factor XIa inhibition assay (FLINT) utilizing a fluorophore-quencher pair peptide substrate. Format: biochemical. Particulars: 30 min preincubation, kinetic reads over 30 min, 5Fam-KLTRAETV-K5Tamra substrate 15 μM; read-out: FXIa Kin Inh IC50. The gist of the method: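 FXIa ([…]) preincubated 30 min with compound (11-point 3-fold dilution, top 100 nM, 2% DMSO), then 15 μM quenched FXI Arg146-based peptide added; Tris pH 7.5, CaCl2, BSA, CHAPS. Fluorescence 485/520 nm read kinetically every 5 min over 30 min at RT; IC50 by 4-parameter fit.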

The next experiment has as its target human plasma kallikrein (Homo sapiens (Human), UniProt P03952). In words: Kallikrein inhibition assay (FLINT) utilizing a quenched AMC peptide substrate. Format: biochemical. The following applies: 30 min preincubation, read-out: Kallikrein Kin Inh IC50. The gist of the method: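 Fluorogenic Z-Gly-Pro-Arg-AMC cleavage (50 μM substrate, 2 nM kallikrein, Tris pH 7.5, CaCl2, BSA, CHAPS, 2% DMSO) read kinetically at 340/440 nm for 30 min after 30-min compound pre-incubation. Compounds in 11-point 3-fold series from 1 μM; percent inhibition fitted to four-parameter equation for IC50.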

The mark [1] stands for this setting: kinetic reads over 30 min, Z-Gly-Pro-Arg-AMC substrate 50 μM.

Like-named read-outs stand apart in the source and are kept apart here.

Chain of Factor XIa (P03951 388-625): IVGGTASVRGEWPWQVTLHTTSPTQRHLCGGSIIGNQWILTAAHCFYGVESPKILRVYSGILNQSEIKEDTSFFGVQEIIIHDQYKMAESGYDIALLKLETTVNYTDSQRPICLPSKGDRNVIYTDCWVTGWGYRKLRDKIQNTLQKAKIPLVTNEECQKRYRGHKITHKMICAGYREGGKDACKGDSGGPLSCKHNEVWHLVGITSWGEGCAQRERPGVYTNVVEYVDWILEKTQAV
Chain of Factor XIa (P03951 19-387 partner): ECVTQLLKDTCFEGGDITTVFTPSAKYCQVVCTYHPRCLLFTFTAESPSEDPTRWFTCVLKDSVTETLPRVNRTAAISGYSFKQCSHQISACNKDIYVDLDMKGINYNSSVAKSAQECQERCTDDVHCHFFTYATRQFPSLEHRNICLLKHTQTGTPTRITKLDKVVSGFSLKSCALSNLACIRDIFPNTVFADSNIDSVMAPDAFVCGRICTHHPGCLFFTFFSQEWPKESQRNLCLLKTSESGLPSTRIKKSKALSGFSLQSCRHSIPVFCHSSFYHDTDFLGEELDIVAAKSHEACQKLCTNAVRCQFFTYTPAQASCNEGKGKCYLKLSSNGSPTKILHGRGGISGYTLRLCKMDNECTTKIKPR
Chain of human plasma kallikrein (P03952 391-638): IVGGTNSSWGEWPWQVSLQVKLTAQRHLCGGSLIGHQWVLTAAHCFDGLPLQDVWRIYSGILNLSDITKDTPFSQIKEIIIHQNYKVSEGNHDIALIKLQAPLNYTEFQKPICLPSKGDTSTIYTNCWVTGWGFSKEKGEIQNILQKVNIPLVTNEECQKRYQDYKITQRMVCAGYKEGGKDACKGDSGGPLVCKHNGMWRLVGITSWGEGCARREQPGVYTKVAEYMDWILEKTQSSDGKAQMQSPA
Chain of human plasma kallikrein (P03952 20-390 partner): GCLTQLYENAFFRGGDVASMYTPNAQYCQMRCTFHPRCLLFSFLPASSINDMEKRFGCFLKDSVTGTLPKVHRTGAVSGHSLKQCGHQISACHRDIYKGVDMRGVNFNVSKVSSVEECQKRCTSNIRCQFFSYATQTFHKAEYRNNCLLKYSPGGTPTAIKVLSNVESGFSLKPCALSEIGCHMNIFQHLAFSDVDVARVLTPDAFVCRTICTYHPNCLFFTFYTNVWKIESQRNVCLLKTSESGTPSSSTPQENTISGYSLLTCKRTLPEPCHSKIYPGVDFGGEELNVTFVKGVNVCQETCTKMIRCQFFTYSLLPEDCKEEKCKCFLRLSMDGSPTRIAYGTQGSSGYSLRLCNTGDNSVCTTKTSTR

Turning to `O=C1C=C(c2c(-n3cnnn3)ccc(Cl)c2F)CC2CC[C@@H](c3nc(-c4nc[nH]n4)c[nH]3)N12` (stereo partly drawn) [Example 331, (3S)-3-(4-(1H-1,2,4-Triazol-3-yl)-1H-imidazol-2-yl)-7-(3-chloro-2-fluoro-6-(1H-tetrazol-1-yl)phenyl)-2,3,8,8a-tetrahydroindolizin-5(1H)-one], the half-maximal inhibitory concentration (IC50) came to 347 nM at Factor XIa and 2.4 µM on human plasma kallikrein (μM, kinetic reads).
Take `O=C1C=C(c2c(-n3cnnn3)ccc(Cl)c2F)CC2CC[C@@H](c3nc(-c4cnn[nH]4)c[nH]3)N12` (stereo partly drawn) [Example 332, (3S)-3-(4-(1H-1,2,3-Triazol-5-yl)-1H-imidazol-2-yl)-7-(3-chloro-2-fluoro-6-(1H-tetrazol-1-yl)phenyl)-2,3,8,8a-tetrahydroindolizin-5(1H)-one]: the figures for the concentration for half-maximal inhibition (IC50) at Factor XIa and at human plasma kallikrein (setting [1]) were 85.8 nM and 0.542 µM, respectively.
With `O=C1C=C(c2c(-n3cnnn3)ccc(Cl)c2F)CC2CC[C@@H](c3nc(-c4ncc[nH]4)c[nH]3)N12` (stereo partly drawn) [Example 333, (3S)-3-(1H,1′H-[2,4′-Biimidazol]-2′-yl)-7-(3-chloro-2-fluoro-6-(1H-tetrazol-1-yl)phenyl)-2,3,8,8a-tetrahydroindolizin-5(1H)-one], the IC50 worked out at 282 nM at Factor XIa and 1.1 µM at human plasma kallikrein (μM, kinetic reads).
The corresponding values for `Cn1ccnc1-c1c[nH]c([C@@H]2CCC3CC(c4c(-n5cnnn5)ccc(Cl)c4F)=CC(=O)N32)n1` (stereo partly drawn) [Example 334, (3S)-7-(3-chloro-2-Fluoro-6-(1H-tetrazol-1-yl)phenyl)-3-(1-methyl-1H,1′H-[2,4′-biimidazol]-2′-yl)-2,3,8,8a-tetrahydroindolizin-5(1H)-one] are 211 nM and 7.3 µM.
As to `Cn1nncc1-c1c[nH]c([C@@H]2CCC3CC(c4c(-n5cnnn5)ccc(Cl)c4F)=CC(=O)N32)n1` (stereo partly drawn) [Example 339, (3S)-7-(3-Chloro-2-fluoro-6-(1H-tetrazol-1-yl)phenyl)-3-(4-(1-methyl-1H-1,2,3-triazol-5-yl)-1H-imidazol-2-yl)-2,3,8,8a-tetrahydroindolizin-5(1H)-one], the IC50 on Factor XIa amounted to 134 nM; at human plasma kallikrein (μM, kinetic reads), 2.05 µM.
Take `COC(=O)Nc1ccc(-c2cnc([C@@H]3CC[C@H]4CC(c5c(-n6cnnn6)ccc(Cl)c5F)=CC(=O)N43)[nH]2)cc1` [Example 340, Methyl (4-(2-((3S,8aS)-7-(3-chloro-2-fluoro-6-(1H-tetrazol-1-yl)phenyl)-5-oxo-1,2,3,5,8,8a-hexahydroindolizin-3-yl)-1H-imidazol-5-yl)phenyl)carbamate]: the results for the IC50 on Factor XIa and on human plasma kallikrein (setting [1]) were 0.3 nM and 0.0019 µM, respectively.
Taken in the same sequence, the figures for `COC(=O)Nc1ccc(-c2cnc([C@@H]3CC[C@@H]4CC(c5c(-n6cnnn6)ccc(Cl)c5F)=CC(=O)N43)[nH]2)cc1` [Example 341, Methyl (4-(2-((3S,8aR)-7-(3-chloro-2-fluoro-6-(1H-tetrazol-1-yl)phenyl)-5-oxo-1,2,3,5,8,8a-hexahydroindolizin-3-yl)-1H-imidazol-5-yl)phenyl)carbamate] were 0.2 nM and 0.0013 µM.
For `O=C(O)c1ccc(-c2cnc([C@@H]3CCC4CC(c5c(-n6cnnn6)ccc(Cl)c5F)=CC(=O)N43)[nH]2)cc1F` (stereo partly drawn) [Example 342, 4-[2-[(3S)-7-[3-Chloro-2-fluoro-6-(tetrazol-1-yl)phenyl]-5-oxo-2,3,8,8a-tetrahydro-1H-indolizin-3-yl]-1H-imidazol-4-yl]-2-fluoro-benzoic acid], the IC50 at Factor XIa stood at 22.6 nM; on human plasma kallikrein (setting [1]), 0.405 µM.
Taken in the same sequence, the figures for `CC1C[C@@H](c2ncc(-c3ccc(N)nc3Cl)[nH]2)N2C(=O)C=C(c3c(-n4cnnn4)ccc(Cl)c3F)CC12` (stereo partly drawn) [Example 347, (3S)-3-(5-(6-Amino-2-chloropyridin-3-yl)-1H-imidazol-2-yl)-7-(3-chloro-2-fluoro-6-(1H-tetrazol-1-yl)phenyl)-1-methyl-2,3,8,8a-tetrahydroindolizin-5(1H)-one] were 0.6 nM and 0.0055 µM.

As a reminder, the IC50 is the concentration that inhibits the measured activity by half.
